Measurements published in patent publication US9493435B2, “IRE-1α inhibitors” (MannKing Corporation, priority 2009, dated 2016).

What was measured:
[1] = test system: human myeloma RPMI8226 tumor xenografts; assay: RPMI8226 xenograft efficacy model; format: in vivo, mouse; details: SCID mice bearing RPMI8226 xenografts, 0.75 mg/kg IV twice weekly
Method: SCID mice are implanted with tumor cells (human RPMI8226 myeloma cells) via IP, IV or SC routes based on the results from the xenograft model development studies (above). Mice are treated with compound or mock treated (vehicle) for a period of up to 4-5 weeks. Compound administration can be via IV, IP, PO or SC routes. In some cases, tunicamycin is administered via IP injection in order to stimulate stress in the animal. This stress mimics the stress an animal may undergo during times of tumor growth. The tunicaymycin injection mimics tumor growth during times of stress and permits evaluation of biomarkers which indicate the effectiveness of a compound (such as XBP-1 splicing) by RT-PCR, immunohistochemistry, or Western blots.
Mice are monitored for tumor growth, regression and general health. Tumors are collected and characterized by immunohistochemistry and/or FACS analysis. Tumor growth is measured by calipers, ultrasound, or by abdominal lavage. Biomarkers in the blood or tumor can evaluated (primarily XBP-1 splicing).
Tumor cells are cultured and injected IP, IV (tail vein) or SC (flank) in the mouse using a 21G needle in a volume of approx 100 μL. Mice are treated with compounds or vehicle alone as a control by IV, IP, SC or PO routes 5 days per week for up to 4-5 weeks. Blood is collected via retroorbital bleed (100 μA) at 2 time points (different eyes). […]

XBP-1 splicing = XBP-1 splicing in vivo in a model of ER stress (tunicamycin-treated SCID mice); parameters: species or system mouse; details: tunicamycin 1 mg/kg IP, 100, 50 or 25 mg/kg orally, 2 hour exposure, RT-PCR
Method: SCID mice were treated with tunicamycin 1 mg/kg IP. Compound no. 12-4 was administered orally two hours later at one of three doses: 100 mg/kg, 50 mg/kg, or 25 mg/kg (2 hour exposure) in 10% hydroxypropyl-beta-cyclodextrin (HPBCD). The total exposure to tunicamycin was 4 hours, and the total exposure to compound 12-4 was 2 hours.
Livers and kidneys were harvested and total RNA was prepared using Trizol. RT-PCR was performed using murine specific XBP1 primers flanking the 26-nt intron and products were separated on 4% agarose gel. The results are shown in FIG. 1B (liver) and FIG. 1C, in which each lane represents an individual mouse (n=4).

CC(C)C[C@H](NC(=O)[C@H](Cc1ccccc1)NC(=O)c1cnccn1)B(O)O [bortezomib]
tumor growth [1]: suppression of tumor growth

Cc1nc(-c2ccc3c(C=O)c(O)ccc3c2)sc1C(=O)N1CCN(C)CC1 [Compound 12-4]
inhibition of XBP-1 splicing in kidney (XBP-1 splicing; kidney): dose-dependent inhibition | inhibition of XBP-1 splicing in liver (XBP-1 splicing; liver): dose-dependent inhibition
